The values that follow come from patent publication US20230285346A1, “METHODS OF USING FTO INHIBITORS FOR THE TREATMENT OF PULMONARY HYPERTENSION” (Ann and Robert H. Lurie Children's Hospital of Chicago, priority 2022, published 2023).

One assay has as its system MCT-induced PH in rats. In words: monocrotaline (MCT)-induced rat PH model. Format: in vivo, Sprague Dawley (SD) rats. As to the method:
FIGS. 15A, 15B, 15C, 15D, and 15E. […] (A) FB-23-2 chemical structure. (B) Hemodynamic measurement showing decreased RVSP in FB23-2-treated MCT rats. (C) FB23-2 treatment attenuated RV hypertrophy. (D) Representative micrographs of pentachrome staining showing a markedly thickened vessel in Vehicle-treated MCT rats whereas normalized thickness of vessel walls in FB23-2-treated rats. At 2 weeks post-MCT challenge, the rats were treated with either PBS or FB23-2 (3 mg/kg, i.p. twice a day) for 2 weeks. V=vessel, Br=Bronchiole. Scale bar, 20 μm. […] Student's t test.
FIGS. 17A, 17B, and 17C. Decreased RVSP and RV hypertrophy in Meclofenamate-treated MCT rats. (A) representative tracings of RVSP measurement. Mec=Meclofenamate. […] (C) Reduced RV hypertrophy in Meclofenamate-treated MCT rats. CTL, control rats without MCT treatment. *P<0.05; **P<0.01. One-way ANOVA.
FIGS. 18A and 18B. Inhibited pulmonary vascular remodeling in Meclofenamate-treated MCT rats. (A) Representative micrographs of pentachrome staining showing a markedly thickened vessel in PBS-treated MCT rats whereas normalized thickness of vessel walls in Meclofenamate-treated rats. At 2 weeks post-MCT challenge, the rats were treated with either PBS or Meclofenamate for 2 weeks. V=vessel, Br=Bronchiole. Scale bar, 20 μm. (B). Quantification of pulmonary artery (PA) wall thickness. CTL=control rats without MCT treatment. *P<0.05. One-way ANOVA.
FIGS. 19A and 19B. Improved right heart contractility and pulmonary arterial function in Meclofenamate-treated MCT rats. At 2 weeks post-MCT, the rats were treated with either PBS or Meclofenamate for 2 weeks and then subject to echocardiography for assessment of right heart contractility determined by RV fraction area changes (RV FAC) (A), and of pulmonary arterial function by PA acceleration time/ejection time ratio (PA AT/ET) (B). ** P<0.01. Student t test.
Inhibited Arginase expression in lung ECs of Fto^Tie2Cre mice following chronic hypoxia. To identify potential FTO targets in lung ECs, RNA was isolated from lung ECs of WT mice and Fto^Tie2Cre mice at normoxia, 3 days, and 21 days hypoxia for RNA sequencing analysis. Arg1 is one of the top 10 genes induced in hypoxic WT mice but not in hypoxic Fto^Tie2Cre mice. […] It has been shown that substrate L-Arginine levels inversely correlate to PA pressure in patients (19). […] Increased Arginase expression and activity in lung ECs leads to reduced substrate L-Arginine for nitric oxide (NO) synthesis by eNOS and thus impairs NO production (21, 22). Low NO levels affect vasotone and smooth muscle cell growth. […] FTO deficiency reduces the stability of ARG2 mRNA in human PAECs. To determine whether ARG2 (the major isoform in human ECs) is a target of FTO in human PAECs, a stability assay was carried out and the effect of FTO on the decay of ARG2 mRNA was assessed. FTO-silenced and control PAECs were treated with 5 μg/mL actinomycin D to stop the new transcriptional process. Total RNA was then isolated at 0, 3, 6 h post-actinomycin D treatment and quantified by QRT-PCR analysis. The relative ARG2 level was calculated and normalized to β-actin and the ARG2 mRNA half-life time (t1/2) was estimated according to the linear regression analysis (9). […] Increased m^6A demethylase activity and FTO expression in PAECs from IPAH patients compared to donor ECs and FTO-dependent upregulation of ARG2 expression in PAECs of IPAH patients. […] Furthermore, methylated RNA immunoprecipitation (MeRIP)-QRT-PCR analysis confirmed a marked decrease of m^6A ARG2 in IPAH ECs compared to normal ECs from unused donors (FIG. 10). • 7. SMC-specific Fto deletion inhibits hypoxia-induced PH in mice. To determine whether FTO is essential for medial thickening and muscularization of distal pulmonary vessels and development of PAH, novel tamoxifen-inducible Fto^iΔSMC mice were generated by breeding Fto-floxed mice into the genetic background of Myh11-CreER^T2 mice. […]

The target of another assay is FTO (Homo sapiens, UniProt Q9C0B1). Conditions: FTO versus ALKBH5; cited from earlier work.
[1] abbreviates: FB23-2 3 mg/kg, i.p. twice a day for 2 weeks, vs vehicle-treated MCT rats.

Sequence of FTO (Q9C0B1 whole entry): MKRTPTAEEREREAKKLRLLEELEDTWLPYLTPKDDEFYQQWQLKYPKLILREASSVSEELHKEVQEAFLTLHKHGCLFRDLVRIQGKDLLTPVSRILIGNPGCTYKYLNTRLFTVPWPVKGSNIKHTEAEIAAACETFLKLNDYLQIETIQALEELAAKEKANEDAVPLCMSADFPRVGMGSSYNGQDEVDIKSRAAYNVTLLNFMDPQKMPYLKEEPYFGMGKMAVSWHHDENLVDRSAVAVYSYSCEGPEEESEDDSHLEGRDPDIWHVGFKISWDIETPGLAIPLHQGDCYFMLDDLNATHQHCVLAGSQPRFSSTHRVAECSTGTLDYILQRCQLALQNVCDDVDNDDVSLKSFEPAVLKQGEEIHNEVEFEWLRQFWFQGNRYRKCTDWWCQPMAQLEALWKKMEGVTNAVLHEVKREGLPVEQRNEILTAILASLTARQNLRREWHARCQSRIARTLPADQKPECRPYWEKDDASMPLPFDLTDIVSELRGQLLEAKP

In the case of `Cc1noc(C)c1-c1cc(Cl)c(Nc2ccccc2C(=O)NO)c(Cl)c1` [FB23-2], the “MCT-induced RVSP increase” value with MCT-induced PH in rats (FB23-2 3 mg/kg, i.p. twice a day for 2 weeks from 2 weeks post-MCT, measured 4 weeks post-MCT, vs vehicle) is “markedly reduced”. In addition, the “RV hypertrophy determined by RV/LV+septum ratio” value with MCT-induced PH in rats (FB23-2 3 mg/kg, i.p. twice a day for 2 weeks from 2 weeks post-MCT, vs vehicle) was “markedly reduced”. Further, in the assay on MCT-induced PH in rats (setting [1]), the “pulmonary arterial function (echocardiography, PA AT/ET)” value is “improved pulmonary arterial function” and the “pulmonary vascular remodeling (vessel wall thickness, pentachrome staining)” value was “reduced pulmonary vascular remodeling”.
In the case of `Cc1ccc(Cl)c(Nc2ccccc2C(=O)O)c1Cl` [Meclofenamate sodium], in the assay on MCT-induced PH in rats (Meclofenamate 10 mg/kg, p.o., twice a day for 2 weeks from 2 weeks post-MCT, vs PBS-treated MCT rats), the RVSP result was “drastically decreased”. For the same compound, the “MCT-induced RV hypertrophy” value in the assay on MCT-induced PH in rats (Meclofenamate 10 mg/kg, p.o., twice a day for 2 weeks, vs PBS-treated MCT rats) is “markedly reduced”. Moreover, the “PA wall thickness (pentachrome staining; pulmonary vascular remodeling)” value in the assay with MCT-induced PH in rats (Meclofenamate 10 mg/kg, p.o., twice a day for 2 weeks, vs untreated MCT-rats) is “markedly reduced”. In the assay on MCT-induced PH in rats (Meclofenamate for 2 weeks from 2 weeks post-MCT, decrease seen in PBS-treated MCT rats), the “right heart contractility, RV fraction area changes (RV FAC), echocardiography” value is recorded as “reversed”. Further, the “ratio of PA acceleration time/ejection time (PA AT/ET)” value in the assay with MCT-induced PH in rats (Meclofenamate for 2 weeks from 2 weeks post-MCT, vs PBS-treated MCT rats) was “marked increase”. The “selectivity of FTO inhibition” value at FTO was “selective over ALKBH5”.
